Patent publication US8329691B2, “Amide compounds and use of the same” (Takeda Pharmaceutical Company Limited, priority 2007, dated 2012)
Where a name gives a salt, the structure may show the parent alone.

These molecules were tested against T1, human renin (Homo sapiens, UniProt P00797) (assay: Measurement of renin inhibition value - B (angiotensinogen substrate, angiotensin I EIA)). Conditions: 1 μM test compound, pH 7.4, 37° C., 30 min.
T1 construct: taking the active type (67-406); made in house
T1 sequence (P00797 67-406): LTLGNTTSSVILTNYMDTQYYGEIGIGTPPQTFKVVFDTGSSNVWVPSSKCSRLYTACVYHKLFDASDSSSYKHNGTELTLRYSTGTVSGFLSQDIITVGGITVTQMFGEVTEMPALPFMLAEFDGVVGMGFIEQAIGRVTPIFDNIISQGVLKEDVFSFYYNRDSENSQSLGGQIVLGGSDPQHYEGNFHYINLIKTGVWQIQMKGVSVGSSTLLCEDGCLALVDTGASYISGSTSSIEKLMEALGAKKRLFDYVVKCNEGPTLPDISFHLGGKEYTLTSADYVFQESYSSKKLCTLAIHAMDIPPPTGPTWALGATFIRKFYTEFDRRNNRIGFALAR
Assay type: biochemical
Experimental: After the reaction, 0.4 ml of immobilized trypsin inhibitor (Pierce Biotechnology, Inc.) was added to remove the trypsin used in the activation by adsorption. The reaction liquid containing the active type renin was concentrated using Vivaspin 20 (molecular weight cut off 10,000, Vivascience, Inc.), and was diluted with 20 mM Tris-hydrochloric acid (pH 8.0).
(5) Purification of Angiotensinogen
After transfection of the plasmid DNA, the cells were subjected to shaking culture under the conditions of 37° C., 8% CO2 and 125 rpm for 3 days. A 600-ml aliquot of the culture medium was centrifuged at 2,000 rpm for 10 min to recover the culture supernatant containing angiotensinogen. To the culture supernatant was added ammonium sulfate (30% saturated concentration), and the mixture was thoroughly stirred and centrifuged at 8,000 rpm for 20 min. The obtained supernatant was added to TOYO Pearl butyl 650M (2×5 cm, Tosoh Corporation) equilibrated with 50 mM tris-hydrochloric acid (pH 8.0) containing 30% saturated ammonium sulfate, at a flow rate of 25 ml/min to allow adsorption. After washing with equilibration buffer, angiotensinogen was eluted by linear concentration gradient from the buffer used for equilibration to 20 mM tris-hydrochloric acid (pH 8.0). The eluate containing angiotensinogen was applied to repeated concentration and dilution using Vivaspin 20 (molecular weight cut off 10,000, Vivascience, Inc.), and the buffer was changed to 20 mM tris-hydrochloric acid (pH 8.0). The eluate was fed to a 6-ml RESOURCE Q column (Amersham Biosciences, Inc.) equilibrated with 20 mM Tris-hydrochloric acid (pH 8.0) containing 50 mM sodium chloride at a flow rate of 6 ml/min to adsorb the angiotensinogen. After washing the column with the buffer solution used in the equilibration, elution was carried out by means of a linear concentration gradient of sodium chloride from 50 mM to 400 mM. The fractions containing angiotensinogen were collected and concentrated using Vivaspin 20 (molecular weight cut off 10,000, Vivascience, Inc.) to a volume of about 2 ml.
(7) Measurement of Renin Inhibition Value—B
As a substrate for renin activity measurement, the angiotensinogen mentioned in (5) above was used. 1 μeach of the test compound (containing 100% DMSO) was added to each well of a 384-well plate (ABgene). Renin was diluted with a buffer solution for reaction (20 mM sodium phosphate (pH 7.4)) to a concentration of 57 pM, and 14 μl each of the dilution was added to each well. The dilution was left to stand at 37° C. for 10 min, and then 5 μl of each of a 6 μM solution of substrate angiotensinogen was added to each well to initiate the reaction. […] The amount of angiotensin I produced by an enzyme reaction was quantified by Enzyme immunoassay (EIA) described below.
Anti-angiotensin I antibody (Peninsula Laboratories Inc.) diluted 5,000-fold with PBS was added to each well of a 384 well black plate (Nalge Nunc International Co., Ltd.) by 25 μl, and left standing overnight at 4° C. to immobilize the antibody in the plate. The antibody solution was removed, PBS solution (100 μl) containing 1% BSA was added to each well, and the mixture was left standing at room temperature for 2 hr for blocking. The blocking solution was removed, and each well was washed 5 times with 100 μl of 0.05% Tween20-PBS. […] Then, a biotinated angiotensin I solution (AnaSpec, 15 μl) prepared to 1.6 nM with a buffer [20 mM tris-hydrochloric acid (pH 7.4), 150 mM sodium chloride, 0.01% BSA, 0.05% Tween20] was added to each well, mixed with a plate mixer and left standing at room temperature for 1 hr.
For `COCCCNc1nc(C(C)(C)C)ncc1C(=O)N(CC(C)C)[C@@H]1CNC[C@H](C(=O)N2CCOCC2)C1.O=C(O)/C=C/C(=O)O` [Example 207, 2-tert-butyl-4-[(3-methoxypropyl)amino]-N-(2-methylpropyl)-N-[(3S,5R)-5-(morpholin-4-ylcarbonyl)piperidin-3-yl]pyrimidine-5-carboxamide monofumarate], the “human renin inhibitory activity: inhibitory activity (%) at 1 μM” value was 98%.

Same assay, conditions: 1 μM test compound, pH 7.4, 37° C., 30 min, read-out: human renin inhibitory activity: inhibitory activity (%) at 1 μM
Molecule `CC(C)CN(C(=O)c1cnc(C(C)(C)C)nc1NCc1ccco1)[C@@H]1CNC[C@H](C(N)=O)C1` (relative stereo) [Example 93, N-[(3R*,5S*)-5-(aminocarbonyl)piperidin-3-yl]-2-tert-butyl-4-[(2-furylmethyl)amino]-N-isobutylpyrimidine-5-carboxamide dihydrochloride] has an inhibition at 1 µM of 97%. Molecule `CC(C)CN(C(=O)c1cnc(C(C)(C)C)nc1NCc1ccco1)[C@@H]1CNC[C@H](C(N)=O)C1` [Example 132, 2-tert-butyl-N-[(3S,5R)-5-carbamoylpiperidin-3-yl]-4-[(furan-2-ylmethyl)amino]-N-(2-methylpropyl)pyrimidine-5-carboxamide dihydrochloride] has an inhibition at 1 µM of 98%. For `CC(C)CN(C(=O)c1cnc(C(C)(C)C)nc1NCc1ncco1)[C@@H]1CNC[C@H](C(=O)N2CCOCC2)C1` [Example 109, 2-tert-butyl-N-(2-methylpropyl)-N-[(3S,5R)-5-(morpholin-4-ylcarbonyl)piperidin-3-yl]-4-[(1,3-oxazol-2-ylmethyl)amino]pyrimidine-5-carboxamide sulfate], the inhibition at 1 µM was 98%. `COCCCNc1nc(C(C)(C)C)ncc1C(=O)N(CC(C)C)[C@@H]1CNC[C@H](C(=O)OC)C1` [Example 96, methyl (3R,5S)-5-[({2-tert-butyl-4-[(3-methoxypropyl)amino]pyrimidin-5-yl}carbonyl)(isobutyl)amino]piperidine-3-carboxylate dihydrochloride] gave an inhibition at 1 µM of 97%. With `CNCC1CCN(C(=O)c2cnc(C(C)C)nc2NCc2ccco2)CC1` [Example 63, N-(2-furylmethyl)-2-isopropyl-5-({4-[(methylamino)methyl]piperidin-1-yl}carbonyl)pyrimidin-4-amine] the inhibition at 1 µM was 54%. With `CCC1CCCCN1C(=O)c1cnc(C(C)(C)C)nc1NCc1ccco1` (centres unmarked) [Example 21, 2-tert-butyl-5-[(2-ethylpiperidin-1-yl)carbonyl]-N-(2-furylmethyl)pyrimidin-4-amine] the inhibition at 1 µM was 58%. In the case of `CC(C)CN(C(=O)c1cnc(C(C)(C)C)nc1NCc1ccco1)[C@@H]1CNC[C@H](C(C)(C)O)C1` (relative stereo) [Example 95, 2-tert-butyl-4-[(2-furylmethyl)amino]-N-[(3R*,5S*)-5-(1-hydroxy-1-methylethyl)piperidin-3-yl]-N-isobutylpyrimidine-5-carboxamide dihydrochloride], the inhibition at 1 µM is reported as 97%. Work on `COC(=O)[C@H]1CNC[C@@H](N(CC(C)C)C(=O)c2cnc(C(C)(C)C)nc2NCc2ccccc2)C1` (relative stereo) [Example 99, methyl (3R*,5S*)-5-[{[4-(benzylamino)-2-tert-butylpyrimidin-5-yl]carbonyl}(isobutyl)amino]piperidine-3-carboxylate] yielded an inhibition at 1 µM of 97%. `CC(C)(C)c1ncc(C(=O)N2CCC(CN)CC2)c(NCc2ccco2)n1` [Example 58, 5-{[4-(aminomethyl)piperidin-1-yl]carbonyl}-2-tert-butyl-N-(2-furylmethyl)pyrimidin-4-amine dihydrochloride] was tested, and the inhibition at 1 µM was 82%. `CC(C)CN(C(=O)c1cnc(C(C)(C)C)nc1NCc1ccco1)[C@@H]1CNC[C@H](C(=O)N2CCC(C)(O)CC2)C1` (relative stereo) [Example 94, 2-tert-butyl-4-[(2-furylmethyl)amino]-N-{(3R*,5S*)-5-[(4-hydroxy-4-methylpiperidin-1-yl)carbonyl]piperidin-3-yl}-N-isobutylpyrimidine-5-carboxamide dihydrochloride] was tested, and the inhibition at 1 µM was 97%. In the case of `COC(=O)[C@H]1CNC[C@@H](N(CC(C)C)C(=O)c2cnc(C(C)(C)C)nc2NCCCSC)C1` (relative stereo) [Example 98, methyl (3R*,5S*)-5-[[(2-tert-butyl-4-{[3-(methylthio)propyl]amino}pyrimidin-5-yl)carbonyl](isobutyl)amino]piperidine-3-carboxylate], the inhibition at 1 µM is reported as 97%. Molecule `CNCC1CCN(C(=O)c2cnc(C(C)(C)C)nc2NCc2ccco2)CC1` [Example 59, 2-tert-butyl-N-(2-furylmethyl)-5-({4-[(methylamino)methyl]piperidin-1-yl}carbonyl)pyrimidin-4-amine dihydrochloride] has an inhibition at 1 µM of 86%.

Same assay, conditions: pH 7.4, 1 μM test compound, pH 7.4, 37° C., 30 min, read-out: human renin inhibitory activity: inhibitory activity (%) at 1 μM
For `COCCCNc1nc(C(C)(C)C)ncc1C(=O)N(CC(C)C)[C@@H]1CNC[C@H](C(=O)N2CCOCC2)C1` [Example 97, 2-tert-butyl-4-[(3-methoxypropyl)amino]-N-(2-methylpropyl)-N-[(3S,5R)-5-(morpholin-4-ylcarbonyl)piperidin-3-yl]pyrimidine-5-carboxamide dihydrochloride], the inhibition at 1 µM was 97%.
